ChEMBL document CHEMBL4229526, “Quinoxaline derivatives as potential antitrypanosomal and antileishmanial agents” (Bioorg Med Chem, 2018)

Legend:
Leishmania donovani [1] = assay: Antileishmanial activity against Leishmania donovani MHOM/SD/62/1S-CL2D LdBOB axenic amastigotes harboring eGFP after 72 hrs by resazurin dye based fluorescence assay; type: functional, organism-based
Leishmania donovani [2] = assay: Antileishmanial activity against Leishmania donovani MHOM/SD/62/1S-CL2D LdBOB amastigotes harboring eGFP infected in human THP1 cells assessed as reduction in number of amastigotes per cell after 96 hrs by DAPI staining based microscopic analysis; type: functional, organism-based; conditions: THP-1, 96 h
THP-1 = assay: Cytotoxicity against human THP1 cells infected with Leishmania donovani MHOM/SD/62/1S-CL2D LdBOB amastigotes harboring eGFP assessed as reduction in cell number after 96 hrs by DAPI staining based microscopic analysis; conditions: THP-1, 96 h
Trypanosoma cruzi [3] = assay: Antitrypanosomal activity against Trypanosoma cruzi Tulahuen amastigote forms infected in rat H9c2 cells assessed as reduction in infected cells after 72 hrs by DRAQ5 DNA dye based confocal microscopic analysis; type: functional, organism-based; conditions: H9c2, 72 h
H9c2 = assay: Cytotoxicity against rat H9c2 cells infected with Trypanosoma cruzi Tulahuen amastigote forms assessed as reduction in cell number after 72 hrs by DRAQ5 DNA dye based confocal microscopic analysis; conditions: H9c2, 72 h
Trypanosoma brucei = assay: Antitrypanosomal activity against Trypanosoma brucei Lister 427 bloodstream forms after 48 hrs by resazurin dye based fluorescence assay; type: functional, organism-based; conditions: Lister 427, 48 h
Trypanosoma cruzi [4] = assay: Antitrypanosomal activity against Trypanosoma cruzi Tulahuen trypomastigote forms infected in monkey LLC-MK2 cells after 24 hrs by CellTiter-Glo luminescent cell viability assay; type: functional, organism-based; conditions: LLC-MK2, 24 h
[5] = Cytotoxicity against human HepG2 cells after 48 hrs by CellTiter-Glo cell viability assay; type: cell-based
Leishmania donovani [6] = assay: Antileishmanial activity against Leishmania donovani MHOM/SD/62/1S-CL2D LdBOB amastigotes harboring eGFP infected in human THP1 cells assessed as reduction in infected cells after 96 hrs by DAPI staining based microscopic analysis; type: functional, organism-based; conditions: THP-1, 96 h
Trypanosoma cruzi [7] = assay: Antitrypanosomal activity against Trypanosoma cruzi Tulahuen amastigote forms infected in rat H9c2 cells assessed as reduction in amastigote number per cell after 72 hrs by DRAQ5 DNA dye based confocal microscopic analysis; type: functional, organism-based; conditions: H9c2, 72 h

SMILES | IC50 (Leishmania donovani [1]) | IC50 (Leishmania donovani [2]) | IC50 (THP-1) | IC50 (Trypanosoma cruzi [3]) | IC50 (H9c2) | IC50 (Trypanosoma brucei) | IC50 (Trypanosoma cruzi [4]) | CC50 at 48 h [5] | IC50 (Leishmania donovani [6]) | IC50 (Trypanosoma cruzi [7])
COc1ccc2nc(-c3ccc(Cl)cc3)c(-c3ccc(S(C)(=O)=O)cc3)nc2c1 | 2.51 µM | 12.6 µM | 7.94 µM | 10 µM | 5.01 µM | 19.9 µM | 1.14 µM | 5.01 µM | 10 µM | 7.94 µM
CS(=O)(=O)c1nc2ccc(Cl)cc2nc1NC1CCCCC1 | 3.98 µM | 12.6 µM | 6.31 µM | 7.94 µM | 3.98 µM | 2.51 µM | 0.4 µM | 5.01 µM | 10 µM | 5.01 µM
CS(=O)(=O)c1ccc(-c2nc3ccccc3nc2-c2ccc(Cl)cc2)cc1 | 3.16 µM | 10 µM | 10 µM | 12.6 µM | 5.01 µM | 10 µM | 0.7 µM | 10 µM | 10 µM | 10 µM
O=C(Cn1ccnc1[N+](=O)[O-])NCc1ccccc1 [BENZNIDAZOLE] |  |  |  | 5.3 µM | > 50 µM | 3.24 µM | 23 µM |  |  | 1.26 µM
CCCCCCCCCCCCCCCCOP(=O)([O-])OCC[N+](C)(C)C [MILTEFOSINE] | 7.94 µM | 3.98 µM | 15.8 µM |  |  |  |  |  | 5.01 µM | 
CCCCNc1nc2cc(Br)ccc2nc1S(C)(=O)=O | 5.01 µM | 6.31 µM | 7.94 µM | 7.94 µM | 5.01 µM | 6.31 µM | 0.98 µM | 7.94 µM | 10 µM | 5.01 µM
COc1ccc2nc(S(C)(=O)=O)c(NC3CCCCC3)nc2c1 | > 50 µM | > 50 µM | 31.6 µM | 19.9 µM | 19.9 µM | 25.1 µM | 42.5 µM | 79.4 µM | > 50 µM | 15.8 µM
COc1ccc2nc(NC3CCCCC3)c(S(C)(=O)=O)nc2c1 | 10 µM | 6.31 µM | 10 µM | 15.8 µM | 6.31 µM | 15.8 µM | 3.64 µM | 12.6 µM | 7.94 µM | 12.6 µM
C[S+]([O-])c1nc2ccc(Cl)cc2nc1NC1CCCCC1 (stereo not given) | 10 µM | 31.6 µM | 31.6 µM | 5.01 µM | 3.16 µM | 6.31 µM | 0.74 µM | 15.8 µM | 31.6 µM | 3.98 µM
CCCCNc1nc2cc(Cl)ccc2nc1S(C)(=O)=O | 3.16 µM | 7.94 µM | 5.01 µM | 10 µM | 5.01 µM | 6.31 µM | 0.96 µM | 6.31 µM | 7.94 µM | 7.94 µM
CC1CS(=O)(=O)CCN1/N=C/c1ccc([N+](=O)[O-])o1 (stereo not given) [NIFURTIMOX] |  |  |  | 5.9 µM | > 50 µM | 7.58 µM | 2.97 µM |  |  | 0.4 µM
CCCCNc1nc2cc(OC)ccc2nc1S(C)(=O)=O | > 50 µM | > 50 µM | > 50 µM | 39.8 µM | 31.6 µM | 25.1 µM | 41.8 µM | > 100 µM | > 50 µM | 25.1 µM
COc1ccc(-c2nc3ccccc3nc2-c2ccc(OC)cc2)cc1 | > 50 µM | > 50 µM | > 50 µM | 12.6 µM | > 50 µM | 31.6 µM | > 50 µM | > 100 µM | > 50 µM | 10 µM
NCCC[C@](N)(C(=O)O)C(F)F [EFLORNITHINE, (S)-] |  |  |  |  |  | 32.4 µM |  |  |  | 
COc1ccc2nc(NC3CCCCC3)c([S+](C)[O-])nc2c1 (stereo not given) | 7.94 µM | 6.31 µM | 10 µM | 12.6 µM | 5.01 µM | 19.9 µM | 7.74 µM | 12.6 µM | 7.94 µM | 10 µM
